According to patent publication US10792303B2, “Compositions and methods for inducing beige or brown fat tissue” (Logick Energetics, priority 2015, dated 2020):

System: KS-483 cells
Test: qPCR gene expression in KS-483 cells after compound stimulation
Format: cell-based
Details: 3 days stimulation, Indo 5 uM; for BMP-4 gene expression (control = 1) / BMP-7 gene expression (control = 1) / CD36 gene expression (control = 1) / CEBP gene expression (control = 1) / CIDEA gene expression (control = 1) / DKK2 gene expression (control = 1) / FABP-4 gene expression (control = 1) / FGF21 gene expression (control = 1) / LPL gene expression (control = 1) / LRP5 gene expression (control = 1) / O3FAR1 gene expression (control = 1) / PLIN1 gene expression (control = 1) / PPAR-γ gene expression (control = 1) / PRDM16 gene expression (control = 1) / PpargC1α/PGC-1α gene expression (control = 1) / SCD1 gene expression (control = 1) / SLC2A4 gene expression (control = 1) / WNT5a gene expression (control = 1) / WNT6 gene expression (control = 1) / WNT10a gene expression (control = 1) / WNT11 gene expression (control = 1) / Adipoq gene expression (control = 1) / CFD gene expression (control = 1) / Noggin gene expression (control = 1) / UCP-1 gene expression (control = 1): Pentosan 5 ug/ml; for BMP-2 gene expression (control = 1): Pentosan 0.05 ug/ml
Protocol: The genes in KS-483 cells were assessed for up- or downregulation after stimulation with compound. Briefly, KS-483 cells were cultured under standard culturing conditions in α-MEM medium supplemented with glutamax, penicillin/streptomycin and 10% heat-inactivated Foetal Calf Serum (FCS).
For gene-expression analysis cells were seeded at 9210 cells/cm2 in 6-wells culture plates (Costar). At day 4, when cells were confluent, cells were stimulated with compounds in the presence of 5 μg/ml vitamin C. After 72 hours stimulation, cells were washed with PBS and subsequently RNA from the cells was isolated in 1 ml TRIzol (Invitrogen) following a standard TRIzol isolation protocol. RNA concentration and purity was assessed on a Nanodrop 1000 (Thermo Scientific). Single strand cDNA was synthesized from the isolated mRNA using reverse transcriptase (RT). Subsequently, SYBR green real-time PCR, also known as qPCR, was used to quantify differential gene expression of selected genes normalized to the expression of the housekeeping gene beta-2 microglobulin (b2m). […] The qPCR protocol applied was as follows:
15 minutes at 95° C. to activate Taq DNA polymerase, inactivate reverse transcriptase and denaturate the cDNA template.
40 cycles of 15 seconds denaturation at 95° C., 30 seconds annealing at 55° C. and 30 seconds of extension at 72° C.
At the melting point, the two strands of DNA will separate and the fluorescence rapidly decreases. Presence of multiple melting point, pointing at contaminated end-products was verified.
The threshold cycle or CT value (the cycle at which a statistically significant increase in normalized fluorescence intensity is first detected) were determined and relative fold change of genes of interest compared to b2m was determined.
The control has an expression of 1; values higher than 1 imply up-regulation of the gene; values lower than 1 imply down-regulation of genes.

Compound	BMP-4 gene expression (control = 1) (1 ng c-DNA)	BMP-7 gene expression (control = 1) (1 ng c-DNA)	CD36 gene expression (control = 1) (1 ng c-DNA)	CEBP gene expression (control = 1) (1 ng c-DNA)	CIDEA gene expression (control = 1) (1 ng c-DNA)	DKK2 gene expression (control = 1) (1 ng c-DNA)	FABP-4 gene expression (control = 1) (1 ng c-DNA)	FGF21 gene expression (control = 1) (1 ng c-DNA)	LPL gene expression (control = 1) (1 ng c-DNA)	LRP5 gene expression (control = 1) (1 ng c-DNA)	O3FAR1 gene expression (control = 1) (1 ng c-DNA)	PLIN1 gene expression (control = 1) (1 ng c-DNA)	PPAR-γ gene expression (control = 1) (1 ng c-DNA)	PRDM16 gene expression (control = 1) (1 ng c-DNA)	PpargC1α/PGC-1α gene expression (control = 1) (1 ng c-DNA)	SCD1 gene expression (control = 1) (1 ng c-DNA)	SLC2A4 gene expression (control = 1) (1 ng c-DNA)	WNT5a gene expression (control = 1) (1 ng c-DNA)	WNT6 gene expression (control = 1) (1 ng c-DNA)	WNT10a gene expression (control = 1) (1 ng c-DNA)	further results
Pentosan polysulfate	0.77	0.77	2.60	0.63	5.50	0.14	3.83	0.23	2.33	3.27	0.44	17.47	1.55	1.85	2.09	0.85	1.07	0.76	0.16	0.03	WNT11 gene expression (control = 1) (1 ng c-DNA): 0.12; BMP-2 gene expression (control = 1) (10 ng c-DNA): 1.32; Adipoq gene expression (control = 1) (10 ng c-DNA): 32.00; CFD gene expression (control = 1) (10 ng c-DNA): 40.86; CIDEA gene expression (control = 1) (10 ng c-DNA): 9.19; Noggin gene expression (control = 1) (10 ng c-DNA): 3.56; O3FAR1 gene expression (control = 1) (10 ng c-DNA): 1.14; UCP-1 gene expression (control = 1) (10 ng c-DNA): 2.85
COc1ccc2c(c1)c(CC(=O)O)c(C)n2C(=O)c1ccc(Cl)cc1 [Indo, Indomethacin]	0.81	1.62	181.5	1.19	0.95	1.06	162.94	2.33	4.43	1.58	2.26	354.02	0.91	1.58	1.15	1.32	2.09	0.73	0.83	0.92	WNT11 gene expression (control = 1) (1 ng c-DNA): 1.01; BMP-2 gene expression (control = 1) (10 ng c-DNA): 1.96; Adipoq gene expression (control = 1) (10 ng c-DNA): 251.30; CFD gene expression (control = 1) (10 ng c-DNA): 413.23; CIDEA gene expression (control = 1) (10 ng c-DNA): 1.86; Noggin gene expression (control = 1) (10 ng c-DNA): 2.25; O3FAR1 gene expression (control = 1) (10 ng c-DNA): 5.68; UCP-1 gene expression (control = 1) (10 ng c-DNA): 2.18
